Test results: the RepoRT retention time repository

Assay: A: acetonitrile + 0.1% formic acid + 10 mM ammonium formate; B: 5% water + 95% acetonitrile + 0.1% formic acid + 10 mM ammonium formate; gradient (min/%B) 0/10 2/10 22/100 27/100 27.1/10
Conditions: stereoisomer not certain

LC retention time [min]	SMILES
0.963	O=C(O)c1ccccc1C(=O)O [Phthalic acid]
1.22	CCC1C(=O)OCC1Cc1cncn1C (stereo unspecified) [Pilocarpine]
0.47	CCc1ccc(CCOc2ccc(CC3SC(=O)NC3=O)cc2)nc1 (stereo unspecified) [Pioglitazone]
0.44	O=C(C=CC=Cc1ccc2c(c1)OCO2)N1CCCCC1 [Piperine]
0.44	CN1C(C(=O)Nc2ccccn2)=C(O)c2ccccc2S1(=O)=O [Piroxicam]
2.3	CCN(CC)CCNC(=O)c1ccc(N)cc1 [Procainamide]
0.425	CC(=O)C1CCC2C3CCC4=CC(=O)CCC4(C)C3CCC12C (stereo unspecified) [Progesterone]
0.952	CC(CN1c2ccccc2Sc2ccccc21)N(C)C (stereo unspecified) [Promethazine]
0.478	CCCOC(=O)c1cc(O)c(O)c(O)c1 [Propyl gallate]
3.99	CCN(CC)CCCC(C)Nc1c2ccc(Cl)cc2nc2ccc(OC)cc12 (stereo unspecified) [Quinacrine]
3.12	CNC(=C[N+](=O)[O-])NCCSCc1ccc(CN(C)C)o1 [Ranitidine]
0.433	CC(C=CC1=C(C)CCCC1(C)C)=CC=CC(C)=CC(=O)O [Retinoic Acid]
0.776	CCN(CC)c1ccc2c(-c3ccccc3C(=O)[O-])c3ccc(=[N+](CC)CC)cc-3oc2c1 [Rhodamine B]
8.08	C[S+](CC[C@H](N)C(=O)[O-])C[C@H]1O[C@@H](n2cnc3c(N)ncnc32)[C@H](O)[C@@H]1O (stereo partly drawn) [S-(5'-Adenosyl)-L-methionine]
3.16	CC(C)(C)NCC(O)c1ccc(O)c(CO)c1 (stereo unspecified) [Salbutamol]
0.448	NC(=O)c1ccccc1O [Salicylamide]
0.561	COc1cc(C=CC(=O)O)cc(OC)c1O [Sinapic acid]
5.46	O=C(O)CCCCCCC(=O)NCC(=O)O [Suberyl Glycine]
0.449	Cc1noc(NS(=O)(=O)c2ccc(N)cc2)c1C [Sulfisoxazole]
0.56	CC1=C(CC(=O)O)c2cc(F)ccc2C1=Cc1ccc(S(C)=O)cc1 (stereo unspecified) [Sulindac]
0.887	CCC(=C(c1ccccc1)c1ccc(OCCN(C)C)cc1)c1ccccc1 [Tamoxifen]
2.71	CC(CCC(=O)NCCS(=O)(=O)O)C1CCC2C3CCC4CC(O)CCC4(C)C3CC(O)C12C (stereo unspecified) [Taurodeoxycholic acid]
2.7	CC(CCC(=O)NCCS(=O)(=O)O)C1CCC2C3C(O)CC4CC(O)CCC4(C)C3CCC12C (stereo unspecified) [Tauroursodeoxycholic acid]
8.44	Cc1ncc(C[n+]2csc(CCOP(=O)([O-])O)c2C)c(N)n1 [Thiamine monophosphate]
1.04	Cc1cn(C2CC(O)C(CO)O2)c(=O)[nH]c1=O (stereo unspecified) [Thymidine]
0.432	CCCCNC(=O)NS(=O)(=O)c1ccc(C)cc1 [Tolbutamide]
0.772	CN(C)CCOc1ccc(C(=C(CCCl)c2ccccc2)c2ccccc2)cc1 [Toremifene]
0.499	CC12C=CC(=O)C=C1CCC1C3CC(O)C(O)(C(=O)CO)C3(C)CC(O)C12F (stereo unspecified) [Triamcinolone]
0.641	CCN(Cc1ccncc1)C(=O)C(CO)c1ccccc1 (stereo unspecified) [Tropicamide]

More lines, now with the values behind:

SMILES	LC retention time [min]
C=C(OP(=O)(O)O)C(=O)O [Phospho(enol)pyruvic Acid]	7.08
NC(COP(=O)(O)O)C(=O)O (stereo unspecified) [Phosphoserine]	7.9
O=C(O)CCCCCC(=O)O [Pimelic acid]	0.909
c1ncc2[nH]cnc2n1 [Purine]	1.01
Cc1ncc(COP(=O)(O)O)c(C=O)c1O [Pyridoxal 5'-phosphate]	5.97
Cc1ncc(CO)c(C=O)c1O [Pyridoxal]	0.981
Cc1ncc(CO)c(CN)c1O [Pyridoxamine]	6.5
Cc1ncc(CO)c(CO)c1O [Pyridoxine]	1.92
O=c1c(O)c(-c2ccc(O)c(O)c2)oc2cc(O)cc(O)c12 [Quercetin]	0.592
O=C(O)c1ccc2ccccc2n1 [Quinaldic acid]	1.48
O=C(c1ccc(OCCN2CCCCC2)cc1)c1c(-c2ccc(O)cc2)sc2cc(O)ccc12 [Raloxifene]	1.42
COC(=O)C1C2CC3c4[nH]c5cc(OC)ccc5c4CCN3CC2CC(OC(=O)c2cc(OC)c(OC)c(OC)c2)C1OC (stereo unspecified) [Reserpine]	0.769
NC(=O)c1ncn(C2OC(CO)C(O)C2O)n1 (stereo unspecified) [Ribavirin]	3.11
Cc1cc2nc3c(=O)[nH]c(=O)nc-3n(CC(O)C(O)C(O)COP(=O)(O)O)c2cc1C (stereo unspecified) [Riboflavin 5'-Monophosphate]	6.38
Cc1cc2nc3c(=O)[nH]c(=O)nc-3n(CC(O)C(O)C(O)CO)c2cc1C (stereo unspecified) [Riboflavin]	3.65
Cc1nc2n(c(=O)c1CCN1CCC(c3noc4cc(F)ccc34)CC1)CCCC2 [Risperidone]	2.42
O=C(O)C(c1ccccc1)C1CCCCN1 (stereo unspecified) [Ritalinic Acid]	3.41
C=C(C)C1Cc2c(ccc3c2OC2COc4cc(OC)c(OC)cc4C2C3=O)O1 (stereo unspecified) [Rotenone]	0.416
CC1OC(OCC2OC(Oc3c(-c4ccc(O)c(O)c4)oc4cc(O)cc(O)c4c3=O)C(O)C(O)C2O)C(O)C(O)C1O (stereo unspecified) [Rutin]	4.42

SMILES	LC retention time [min]
NCCc1c[nH]c2ccc(O)cc12 [Serotonin]	3.29
COc1cc(C2Oc3cc(C4Oc5cc(O)cc(O)c5C(=O)C4O)ccc3OC2CO)ccc1O (stereo unspecified) [Silibinin]	0.474
CC=CC=CC(=O)O [Sorbic acid]	0.486
NCCCNCCCCNCCCN [Spermine]	9.6
C=C1CC23CCC4C(C)(C(=O)OC5OC(CO)C(O)C(O)C5O)CCCC4(C)C2CCC1(OC1OC(CO)C(O)C(O)C1OC1OC(CO)C(O)C(O)C1O)C3 (stereo unspecified) [Stevioside]	4.85
O=C(O)CCCCCCC(=O)O [Suberic acid]	0.712
OCC1OC(OC2(CO)OC(CO)C(O)C2O)C(O)C(O)C1O (stereo unspecified) [Sucrose]	6.27
CNCC(O)c1ccc(O)cc1 (stereo unspecified) [Synephrine]	3.2
CN1CC(=O)N2C(Cc3c([nH]c4ccccc34)C2c2ccc3c(c2)OCO3)C1=O (stereo unspecified) [Tadalafil]	0.457
NCCS(=O)(=O)O [Taurine]	5.82
Cn1cnc2c1c(=O)[nH]c(=O)n2C [Theobromine]	0.687
Cn1c(=O)c2[nH]cnc2n(C)c1=O [Theophylline]	0.596
CSc1ccc2c(c1)N(CCC1CCCCN1C)c1ccccc1S2 (stereo unspecified) [Thioridazine]	0.953
Cc1c[nH]c(=O)[nH]c1=O [Thymine]	0.793
O=C(O)C=CCCCCCCCCC(=O)O [Traumatic acid]	0.561
Nc1nc(N)c2nc(-c3ccccc3)c(N)nc2n1 [Triamterene]	2.5
NCCc1c[nH]c2ccccc12 [Tryptamine]	2.25
NCCc1ccc(O)cc1 [Tyramine]	3.19
